Measured values taken from patent US6737383B1, “Herbicidal oxadiazolidines” (priority 1999, dated 2004).

Assays:
crabgrass = assay: Test B pre/postemergence crabgrass; type: in vivo, Digitaria sanguinalis
Method in brief: (§1)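 Herbicidal effect was estimated by eye on a ten-point control scale after plants spent twelve to sixteen days in a greenhouse following soil or foliar treatment. Foliar sprays targeted plants at one to four leaves; all doses were formulated in a non-phytotoxic solvent with surfactant.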

pigweed = assay: Test B pre/postemergence pigweed; type: in vivo, Amaranthus retroflexus
Method in brief: as §1

morningglory = assay: Test B pre/postemergence morningglory; type: in vivo, Ipomoea hederacea
Method in brief: as §1

bedstraw = assay: Test B pre/postemergence bedstraw; type: in vivo, Galium aparine
Method in brief: as §1

rape = assay: Test B pre/postemergence rape; type: in vivo, Brassica napus
Method in brief: as §1

rice = assay: Test B flood test rice; type: in vivo, Oryza sativa
Method in brief: (§2)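 Each value is a visual injury score relative to controls, with 10 meaning complete control and 0 no effect. Evaluation took place twelve to sixteen days after the 2-leaf-stage plants were treated and kept in the greenhouse.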

wheat = assay: Test B pre/postemergence wheat; type: in vivo, Triticum aestivum; conditions: for Plant response rating, Wheat: Rate 250 g/ha
Method in brief: as §1

smallflower flatsedge = assay: Test B flood test smallflower flatsedge; type: in vivo, Cyperus difformis
Method in brief: as §2

duck salad = assay: Test B flood test duck salad; type: in vivo, Heteranthera limosa
Method in brief: as §2

cocklebur = assay: Test B pre/postemergence cocklebur; type: in vivo, Xanthium strumarium
Method in brief: as §1

corn = assay: Test B pre/postemergence corn; type: in vivo, Zea mays
Method in brief: as §1

soybean = assay: Test B pre/postemergence soybean; type: in vivo, Glycine max
Method in brief: as §1

giant foxtail = assay: Test B pre/postemergence giant foxtail; type: in vivo, Setaria faberii
Method in brief: as §1

velvetleaf = assay: Test B pre/postemergence velvetleaf; type: in vivo, Abutilon theophrasti; conditions: for Plant response rating, Velvetleaf: Rate 250 g/ha
Method in brief: as §1

wild oat = assay: Test B pre/postemergence wild oat; type: in vivo, Avena fatua; conditions: for Plant response rating, Wild oats: Rate 250 g/ha
Method in brief: as §1

purple nutsedge = assay: Test B pre/postemergence purple nutsedge; type: in vivo, Cyperus rotundus
Method in brief: as §1

[1] = Postemergence, Rate 125 g/ha, scale of 0 to 10 where 0 is no effect and 10 is complete control
[2] = Postemergence, Rate 250 g/ha, scale 0 to 10, 0 no effect, 10 complete control
[3] = Preemergence, Rate 62 g/ha, scale 0 to 10 (0 no effect, 10 complete control)
[4] = Preemergence, Rate 125 g/ha, scale 0 to 10 (0 no effect, 10 complete control)
[5] = Preemergence, Rate 250 g/ha, scale of 0 to 10 where 0 is no effect and 10 is complete control
[6] = Preemergence, Rate 500 g/ha, scale 0 to 10 (0 no effect, 10 complete control)
[7] = Rate 62 g/ha, Postemergence, scale of 0 to 10 where 0 is no effect and 10 is complete control
[8] = Rate 500 g/ha, Postemergence, scale 0 to 10, 0 no effect, 10 complete control
[9] = Rate 250 g/ha, Postemergence, scale 0 to 10, 0 is no effect, 10 is complete control
[10] = Postemergence (flood test species), Rate 125 g/ha, scale of 0 to 10 where 0 is no effect and 10 is complete control
[11] = Rate 62 g/ha, Postemergence section, flood test species, scale of 0 to 10 where 0 is no effect and 10 is complete control
[12] = Rate 250 g/ha, Postemergence (flood test), scale 0 to 10, 0 is no effect, 10 is complete control
[13] = Rate 250 g/ha, headed Pre-emergence (flood test species), scale 0 to 10 (0 no effect, 10 complete control)
[14] = Rate 500 g/ha, headed Pre-emergence (flood test species), scale 0 to 10 (0 no effect, 10 complete control)
[15] = Rate 500 g/ha, listed under Postemergence (flood test species), scale 0 to 10, 0 no effect, 10 complete control
[16] = Rate 1000 g/ha, Pre-emergence (as headed), scale 0 to 10
[17] = Rate 2000 g/ha, Pre-emergence (as headed), scale 0 to 10
[18] = Preemergence, Rate 125 g/ha, 0 is no effect, 10 is complete control
[19] = Preemergence, scale of 0 to 10 where 0 is no effect and 10 is complete control
[20] = Postemergence, scale 0 to 10, 0 is no effect, 10 is complete control

Structure (SMILES): CC(C)N(C(=O)n1oc(=O)n(C(C)C)c1=O)c1ccccc1 [Compound 113]
- Crabgrass plant response rating (crabgrass; [1]): 9
- Crabgrass plant response rating (crabgrass; [2]): 9
- Crabgrass plant response rating (crabgrass; [3]): 7
- Plant response rating, Crabgrass (crabgrass; [4]): 10
- Plant response rating, Crabgrass (crabgrass; [5]): 10
- Crabgrass plant response rating (crabgrass; [6]): 10
- Crabgrass plant response rating (crabgrass; [7]): 9
- Crabgrass plant response rating (crabgrass; [8]): 9
- Redroot pigweed plant response rating (pigweed; [1]): 4
- Redroot pigweed plant response rating (pigweed; [3]): 8
- Plant response rating, Redroot pigweed (pigweed; [4]): 8
- Plant response rating, Redroot pigweed (pigweed; [5]): 10
- Redroot pigweed plant response rating (pigweed; [6]): 10
- Redroot pigweed plant response rating (pigweed; [7]): 3
- Plant response rating, Redroot pigweed (pigweed; [9]): 6
- Redroot pigweed plant response rating (pigweed; [8]): 7
- Morningglory plant response rating (morningglory; [1]): 5
- Morningglory plant response rating (morningglory; [2]): 8
- Morningglory plant response rating (morningglory; [3]): 1
- Plant response rating, Morningglory (morningglory; [4]): 2
- Plant response rating, Morningglory (morningglory; [5]): 7
- Morningglory plant response rating (morningglory; [6]): 8
- Morningglory plant response rating (morningglory; [7]): 5
- Morningglory plant response rating (morningglory; [8]): 10
- Bedstraw plant response rating (bedstraw; Postemergence, Rate 62 g/ha, scale 0 to 10, 0 is no effect, 10 is complete control): 1
- Bedstraw plant response rating (bedstraw; [2]): 7
- Bedstraw plant response rating (bedstraw; [3]): 4
- Plant response rating, Bedstraw (bedstraw; [4]): 6
- Plant response rating, Bedstraw (bedstraw; [5]): 7
- Bedstraw plant response rating (bedstraw; [6]): 8
- Bedstraw plant response rating (bedstraw; Rate 125 g/ha, Postemergence, scale 0 to 10, 0 no effect, 10 complete control): 4
- Rape plant response rating (rape; [1]): 3
- Rape plant response rating (rape; [2]): 7
- Rape plant response rating (rape; [3]): 4
- Plant response rating, Rape (rape; [4]): 7
- Plant response rating, Rape (rape; [5]): 10
- Rape plant response rating (rape; [6]): 10
- Rape plant response rating (rape; [7]): 0
- Rape plant response rating (rape; [8]): 7
- Rice plant response rating (rice; [10]): 0
- Rice plant response rating (rice; [11]): 0
- Plant response rating, Rice (rice; [12]): 0
- Rice plant response rating (rice; [13]): 0
- Plant response rating, Rice (rice; [14]): 0
- Rice plant response rating (rice; [15]): 0
- Rice plant response rating (rice; [16]): 0
- Rice plant response rating (rice; [17]): 7
- Wheat plant response rating (wheat; [1]): 3
- Wheat plant response rating (wheat; [3]): 2
- Wheat plant response rating (0 to 10 scale) (wheat; [18]): 4
- Plant response rating, Wheat (wheat; [19]): 7
- Wheat plant response rating (wheat; [6]): 8
- Wheat plant response rating (wheat; [7]): 1
- Plant response rating, Wheat (wheat; [20]): 4
- Wheat plant response rating (wheat; [8]): 6
- S. Flatsedge plant response rating (smallflower flatsedge; [10]): 0
- S. Flatsedge plant response rating (smallflower flatsedge; Pre-emergence, Rate 1000 g/ha, scale 0 to 10 (0 no effect, 10 complete control)): 0
- S. Flatsedge plant response rating (smallflower flatsedge; [11]): 0
- Plant response rating, S. Flatsedge (smallflower flatsedge; [12]): 0
- S. Flatsedge plant response rating (smallflower flatsedge; [13]): 0
- Plant response rating, S. Flatsedge (smallflower flatsedge; [14]): 0
- S. Flatsedge plant response rating (smallflower flatsedge; [15]): 0
- S. Flatsedge plant response rating (smallflower flatsedge; [17]): 9
- Ducksalad plant response rating (duck salad; [10]): 0
- Ducksalad plant response rating (duck salad; [11]): 0
- Ducksalad plant response rating (duck salad; [13]): 0
- Plant response rating, Ducksalad (duck salad; [14]): 0
- Ducksalad plant response rating (duck salad; [15]): 0
- Ducksalad plant response rating (duck salad; [16]): 1
- Ducksalad plant response rating (duck salad; [17]): 8
- Ducksalad plant response rating (duck salad; flood test, listed under Postemergence, Rate 250 g/ha, scale 0 to 10, 0 no effect, 10 complete control): 0
- Cocklebur plant response rating (cocklebur; [1]): 1
- Cocklebur plant response rating (cocklebur; [2]): 1
- Cocklebur plant response rating (cocklebur; [3]): 0
- Plant response rating, Cocklebur (cocklebur; [4]): 1
- Plant response rating, Cocklebur (cocklebur; [5]): 3
- Cocklebur plant response rating (cocklebur; [6]): 3
- Cocklebur plant response rating (cocklebur; [7]): 1
- Cocklebur plant response rating (cocklebur; [8]): 4
- Corn plant response rating (corn; [1]): 1
- Corn plant response rating (corn; [2]): 5
- Corn plant response rating (corn; [3]): 3
- Plant response rating, Corn (corn; [4]): 4
- Plant response rating, Corn (corn; [5]): 8
- Corn plant response rating (corn; [6]): 10
- Corn plant response rating (corn; [7]): 0
- Corn plant response rating (corn; [8]): 6
- Soybean plant response rating (soybean; [1]): 6
- Soybean plant response rating (soybean; [3]): 3
- Plant response rating, Soybean (soybean; [4]): 8
- Plant response rating, Soybean (soybean; [5]): 9
- Soybean plant response rating (soybean; [6]): 9
- Soybean plant response rating (soybean; [7]): 6
- Plant response rating, Soybean (soybean; [9]): 7
- Soybean plant response rating (soybean; [8]): 7
- Giant foxtail plant response rating (giant foxtail; [1]): 9
- Giant foxtail plant response rating (giant foxtail; [2]): 9
- Giant foxtail plant response rating (giant foxtail; [3]): 9
- Plant response rating, Giant foxtail (giant foxtail; [4]): 10
- Plant response rating, Giant foxtail (giant foxtail; [5]): 10
- Giant foxtail plant response rating (giant foxtail; [6]): 10
- Giant foxtail plant response rating (giant foxtail; [7]): 9
- Giant foxtail plant response rating (giant foxtail; [8]): 9
- Velvetleaf plant response rating (velvetleaf; [1]): 1
- Velvetleaf plant response rating (velvetleaf; [3]): 6
- Velvetleaf plant response rating (0 to 10 scale) (velvetleaf; [18]): 7
- Plant response rating, Velvetleaf (velvetleaf; [19]): 8
- Velvetleaf plant response rating (velvetleaf; [6]): 8
- Velvetleaf plant response rating (velvetleaf; [7]): 0
- Plant response rating, Velvetleaf (velvetleaf; [20]): 7
- Velvetleaf plant response rating (velvetleaf; [8]): 8
- Wild oats plant response rating (wild oat; [1]): 2
- Wild oats plant response rating (wild oat; [3]): 6
- Wild oats plant response rating (0 to 10 scale) (wild oat; [18]): 10
- Plant response rating, Wild oats (wild oat; [19]): 10
- Wild oats plant response rating (wild oat; [6]): 10
- Wild oats plant response rating (wild oat; [7]): 1
- Plant response rating, Wild oats (wild oat; [20]): 6
- Wild oats plant response rating (wild oat; [8]): 6
- Nutsedge plant response rating (purple nutsedge; [1]): 0
- Nutsedge plant response rating (purple nutsedge; [2]): 0
- Nutsedge plant response rating (purple nutsedge; [3]): 0
- Plant response rating, Nutsedge (purple nutsedge; [4]): 0
- Plant response rating, Nutsedge (purple nutsedge; [5]): 0
- Nutsedge plant response rating (purple nutsedge; [6]): 0
- Nutsedge plant response rating (purple nutsedge; [7]): 0
- Nutsedge plant response rating (purple nutsedge; [8]): 2
